Tests used:
Influenza A virus [1] = assay: Antiviral activity against Influenza A virus A/Anhui/1/2013 (H7N9) infected in MDCK cells assessed as inhibition of viral replication; assay type: functional, organism-based
[2] = Selectivity index, ratio of CC50 for cytotoxicity against MDCK cells infected with Influenza A virus A/Anhui/1/2013 (H7N9) to IC50 for antiviral activity against Influenza A virus A/Anhui/1/2013 (H7N9) infected in MDCK cells; assay type: toxicity, cell-based; conditions: dog; read-out: Ratio CC50/IC50
Influenza A virus [3] = assay: Antiviral activity against Influenza A virus A/Puerto Rico/8/34 (H1N1) infected in MDCK cells assessed as inhibition of viral replication; assay type: functional, organism-based
[4] = Selectivity index, ratio of CC50 for cytotoxicity against MDCK cells infected with Influenza A virus A/Puerto Rico/8/34 (H1N1) to IC50 for antiviral activity against Influenza A virus A/Puerto Rico/8/34 (H1N1) infected in MDCK cells; assay type: toxicity, cell-based; conditions: dog; read-out: Ratio CC50/IC50
[5] = Cytotoxicity against MDCK cells infected with Influenza A virus A/Puerto Rico/8/34 (H1N1) assessed as reduction in cell viability; assay type: toxicity, cell-based, Canis lupus familiaris; conditions: dog
[6] = Cytotoxicity against MDCK cells infected with Influenza A virus A/Anhui/1/2013 (H7N9) assessed as reduction in cell viability; assay type: toxicity, cell-based, Canis lupus familiaris; conditions: dog

Structure (SMILES) | IC50 (Influenza A virus [1]) | selectivity ratio [2] | IC50 (Influenza A virus [3]) | selectivity ratio [4] | CC50 [5] | CC50 [6]
CC1(C)[C@@H]2CC[C@@]1(C(=O)O/N=C(\N)c1ccc(Br)cc1)C(=O)C2 | 3 µM | 118 | 13 µM | 31 | 387 µM | 354 µM
CC1(C)[C@@H]2CC[C@@]1(C(=O)O/N=C(\N)c1ccc(Cl)cc1)C(=O)C2 | > 30 µM | 3 | 14 µM | 17 | 239 µM | 75 µM
CC1(C)[C@@H]2CC[C@@]1(c1nc(-c3ccccc3)no1)C(=O)C2 | > 117 µM | 2 | 5 µM | 37 | 198 µM | 199 µM
CC/C(N)=N/OC(=O)[C@]12CC[C@H](CC1=O)C2(C)C |  |  | 162 µM | 5 | 807 µM | 
CC1(C)[C@@H]2CC[C@@]1(C(=O)O/N=C(\N)c1cccc(F)c1)C(=O)C2 | 21 µM | 4 | 6 µM | 26 | 155 µM | 79 µM
CC(C)(C)/C(N)=N/OC(=O)[C@]12CC[C@H](CC1=O)C2(C)C |  |  | 975 µM | 1 | > 1140 µM | 
CC1(C)[C@@H]2CC[C@@]1(C(=O)O/N=C(\N)c1ccccc1F)C(=O)C2 |  |  | 46 µM | 5 | 238 µM | 
CC1(C)[C@@H]2CC[C@@]1(c1nc(-c3ccc(F)cc3)no1)C(=O)C2 | 30 µM | 7 | 4 µM | 74 | 270 µM | 203 µM
CC1(C)[C@@H]2CC[C@@]1(c1nc(Cc3ccc(Cl)cc3)no1)C(=O)C2 | 8 µM | 120 | 36 µM | > 25 | > 906 µM | > 906 µM
Cc1noc([C@]23CC[C@H](CC2=O)C3(C)C)n1 |  |  | > 904 µM |  | > 904 µM | 
CC1(C)[C@@H]2CC[C@@]1(c1nc(-c3ccc(Br)cc3)no1)C(=O)C2 |  |  | 6 µM | 6 | 37 µM | 
CC(C)(C)c1noc([C@]23CC[C@H](CC2=O)C3(C)C)n1 |  |  | > 382 µM | < 3 | 1140 µM | 
CC1(C)[C@@H]2CC[C@@]1(c1nc(-c3ccc(Cl)cc3)no1)C(=O)C2 |  |  | 33 µM | 2 | 52 µM | 
CC1(C)[C@@H]2CC[C@@]1(C(=O)O/N=C(\N)Cc1ccc(Cl)cc1)C(=O)C2 |  |  | 15 µM | 5 | 73 µM | 
CC1(C)[C@@H]2CC[C@@]1(C(=O)O/N=C(\N)Cc1ccc(Br)cc1)C(=O)C2 |  |  | 12 µM | 4 | 46 µM | 
CC1(C)[C@@H]2CC[C@@]1(c1nc(-c3ccncc3)no1)C(=O)C2 | > 353 µM | 3 | 25 µM | 40 | 1000 µM | 1110 µM
CC1(C)[C@@H]2CC[C@@]1(C(=O)O/N=C(\N)c1ccc(F)cc1)C(=O)C2 | > 94 µM | 1 | 8 µM | 29 | 236 µM | 94 µM
CC(N)C12CC3CC(CC(C3)C1)C2 (stereo not drawn) [RIMANTADINE] | 51 µM | 7 | 64 µM | 6 | 379 µM | 
C/C(N)=N/OC(=O)[C@]12CC[C@H](CC1=O)C2(C)C |  |  | 175 µM | 3 | 545 µM | 
CCc1noc([C@]23CC[C@H](CC2=O)C3(C)C)n1 |  |  | 193 µM | > 4 | > 763 µM | 

Structure (SMILES) | IC50 (Influenza A virus [1]) | selectivity ratio [2] | IC50 (Influenza A virus [3]) | selectivity ratio [4] | CC50 [5] | CC50 [6]
CC1(C)[C@@H]2CC[C@@]1(C(=O)O/N=C(\N)c1ccccn1)C(=O)C2 | 110 µM | 6 | 18 µM | 42 | 751 µM | 688 µM
CC(C)c1noc([C@]23CC[C@H](CC2=O)C3(C)C)n1 |  |  | 188 µM | 5 | 897 µM | 
CC1(C)[C@@H]2CC[C@@]1(C(=O)O/N=C(\N)c1ccncc1)C(=O)C2 |  |  | 78 µM | 11 | 846 µM | 
CC1(C)[C@@H]2CC[C@@]1(c1nc(Cc3ccc(F)cc3)no1)C(=O)C2 |  |  | > 105 µM | < 5 | 497 µM | 
CC1(C)[C@@H]2CC[C@@]1(C(=O)O/N=C(\N)c1cccnc1)C(=O)C2 | > 332 µM | 3 | 104 µM | > 10 | > 997 µM | 831 µM
CC1(C)[C@@H]2CC[C@@]1(c1nc(Cc3ccc(Br)cc3)no1)C(=O)C2 | 267 µM | 3 | 13 µM | > 60 | > 792 µM | > 800 µM
CC1(C)[C@@H]2CC[C@@]1(c1nc(-c3ccccn3)no1)C(=O)C2 |  |  | > 1000 µM |  | > 1000 µM | 
CC1(C)[C@@H]2CC[C@@]1(C(=O)O/N=C(\N)Cc1ccc(F)cc1)C(=O)C2 |  |  | > 126 µM | < 2 | 244 µM | 
CC1(C)[C@@H]2CC[C@@]1(c1nc(Cc3ccccc3F)no1)C(=O)C2 |  |  | 78 µM | 5 | 394 µM | 
CC1(C)[C@@H]2CC[C@@]1(C(=O)O/N=C(\N)Cc1cccc(F)c1)C(=O)C2 |  |  | > 318 µM | 3 | 830 µM | 
CC1(C)[C@@H]2CC[C@@]1(C(=O)O/N=C(\N)c1ccc(C(F)(F)F)cc1)C(=O)C2 |  |  | 547 µM | > 2 | > 1060 µM | 
CN(C)Cc1noc([C@]23CC[C@H](CC2=O)C3(C)C)n1 |  |  | 913 µM | 1 | > 1190 µM | 
CCC(CC)O[C@@H]1C=C(C(=O)O)C[C@H](N)[C@H]1NC(C)=O [OSELTAMIVIR CARBOXYLATE] | 0.16 µM | > 625 | 0.18 µM |  | > 100 µM | > 100 µM
CC(C)/C(N)=N/OC(=O)[C@]12CC[C@H](CC1=O)C2(C)C |  |  | 50 µM | 14 | 730 µM | 
CC1(C)[C@@H]2CC[C@@]1(c1nc(-c3ccccc3F)no1)C(=O)C2 |  |  | 12 µM | 37 | 455 µM | 
CC1(C)[C@@H]2CC[C@@]1(C(=O)O/N=C(\N)c1ccccc1)C(=O)C2 |  |  | 59 µM | 5 | 290 µM | 
CC1(C)[C@@H]2CC[C@@]1(C(=O)O/N=C(\N)Cc1ccccc1F)C(=O)C2 |  |  | 124 µM | 7 | 877 µM | 
CN(C)C/C(N)=N/OC(=O)[C@]12CC[C@H](CC1=O)C2(C)C |  |  | 52 µM | 8 | 433 µM | 
CC1(C)[C@@H]2CC[C@@]1(c1nc(-c3ccc(C(F)(F)F)cc3)no1)C(=O)C2 |  |  | 7 µM | 5 | 32 µM | 
CC1(C)[C@@H]2CC[C@@]1(c1nc(-c3cccc(F)c3)no1)C(=O)C2 | 93 µM | 11 | 6 µM | > 231 | > 1280 µM | > 1000 µM
